Laboratory results from patent US20230088286A1, “USP7 INHIBITOR FOR USE IN THE TREATMENT OF CANCER” (ALMAC DISCOVERY LIMITED, priority 2020, published 2023).
Entries after “also recorded” stand apart in the source; their conditions may differ.

Experiments:
Oral availability = format: in vivo; details: compared to AD-04
USP7 = USP7 (Homo sapiens, UniProt Q93009); experiment: TE (HCT116); format: cell-based
LM CLhep (h) = format: in vitro ADME, human
Hep CLhep (h) = format: in vitro ADME, human
MDCK permeability = format: in vitro ADME; details: dog, MDCK; read-out: MDCK Papp ratio
MDCK = MDCK permeability; format: in vitro ADME
2C19 = 2C19 (Homo sapiens, UniProt P33261); experiment: Cyp inhibition 2C19; format: in vitro ADME; details: read-out: Cyps: 2C19
2C19, sequence (P33261 whole entry): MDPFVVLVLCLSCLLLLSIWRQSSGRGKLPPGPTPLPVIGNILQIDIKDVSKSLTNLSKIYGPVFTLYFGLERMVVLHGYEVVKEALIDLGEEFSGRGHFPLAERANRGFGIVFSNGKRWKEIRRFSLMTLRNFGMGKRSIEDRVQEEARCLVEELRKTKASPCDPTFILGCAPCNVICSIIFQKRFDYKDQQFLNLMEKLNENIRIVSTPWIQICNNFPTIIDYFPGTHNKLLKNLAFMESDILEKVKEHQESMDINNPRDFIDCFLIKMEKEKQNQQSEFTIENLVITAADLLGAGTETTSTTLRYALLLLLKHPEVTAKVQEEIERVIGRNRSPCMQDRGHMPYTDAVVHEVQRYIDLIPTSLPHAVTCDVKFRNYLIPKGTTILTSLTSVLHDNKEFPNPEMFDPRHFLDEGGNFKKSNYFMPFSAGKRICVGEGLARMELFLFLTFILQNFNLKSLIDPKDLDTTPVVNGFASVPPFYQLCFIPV

2D6 = 2D6 (Homo sapiens, UniProt P10635); experiment: Cyp inhibition 2D6; format: in vitro ADME; details: read-out: Cyps: 2D6
2D6, sequence (P10635 whole entry): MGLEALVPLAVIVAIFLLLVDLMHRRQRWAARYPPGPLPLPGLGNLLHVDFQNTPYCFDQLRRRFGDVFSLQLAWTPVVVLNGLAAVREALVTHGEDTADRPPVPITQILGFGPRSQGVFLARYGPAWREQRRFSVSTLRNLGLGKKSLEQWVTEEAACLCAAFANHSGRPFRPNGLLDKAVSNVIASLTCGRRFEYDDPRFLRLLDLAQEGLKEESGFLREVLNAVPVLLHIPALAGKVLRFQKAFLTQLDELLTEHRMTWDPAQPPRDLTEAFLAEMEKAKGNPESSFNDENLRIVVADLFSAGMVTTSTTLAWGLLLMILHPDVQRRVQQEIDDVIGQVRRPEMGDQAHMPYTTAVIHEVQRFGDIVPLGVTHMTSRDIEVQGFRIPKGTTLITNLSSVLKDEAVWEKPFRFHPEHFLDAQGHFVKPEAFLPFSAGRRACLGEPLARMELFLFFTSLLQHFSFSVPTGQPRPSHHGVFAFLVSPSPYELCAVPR

HIF-1α = experiment: Ubiquitination assay, TUBE pull-down of polyubiquitinated HIF-1α; format: cell-based, human; details: HDF, hypoxia
Procedure: Given HIF-1α stability is known to be regulated at the protein level by ubiquitination, we investigated whether USP7 inhibition modulates HIF-1α polyubiquitination. […] Cells were harvested, lysed and polyubiquitinated proteins pulled down using two types of Tetra Ubiquitin Binding Entities (TUBES); with equal affinity for K48/K63 or 10 times more affinity for […]. Samples were analysed by immuno-blot using a HIF-1α antibody. […] These findings indicate that USP7 inhibition results in K48 polyubiquitination of HIF-1α and consequently, its proteasomal-mediated degradation.
Cells were lysed in a buffer containing 50 mM Tris-HCl, pH 7.5, 150 mM NaCl, 1 mM EDTA, 1% NP-40, 10% Glycerol, 50 mM NaF, 5 mM sodium pyrophosphate, 10 mM glycerol phosphate, 1 mM sodium orthovanadate, protease and phosphatase inhibitor tablet and 50 uM PR-619. Lysates were pre-cleared by centrifugation at 4° C. for 15 mins at 16,000× g and protein concentration determined using BCA method. 20 ul of samples was taken as input. Pre-cleared supernatant containing 0.5 mg of total protein was added to 20 ul equilibrated Agarose-TUBE 1 or TUBE 2 beads (Life Sensors) and incubated for 2 hours at 4° C. on a rocker platform. Beads were collected by low speed centrifugation (1000-5000× g, 4° C.) for 5 minutes and supernatant taken as FT. Beads were washed twice with 1 ml TBS-T (20 mM Tris-HCl, pH 8.0, 0.15M NaCl, 0.1% Tween-20) and collected by low speed centrifugation. Finally, beads were resuspended in 30 ul of SDS reducing sample buffer and boiled for 10 min at 95° C.

[1] = tested on: cancer cells, primary and immortalized fibroblasts; experiment: Cell proliferation assay (CellTiter-Glo viability); format: cell-based, human
Procedure: The functional impact of USP7-mediated decrease in VEGF secretion is not on fibroblast or cancer cell proliferation. […] After 72 hours cell viability was measured by Cell-Titer-Glo. The results were normalized to the control non-treated group (mean±SD, n=3).

[2] = tested on: cancer cells, fibroblasts and endothelial cells; experiment: Scratch wound cell migration assay; format: cell-based, human; details: any of tested cells
Procedure: Pictures of wound closure were taken every 2 hours during a 4-day assay using a time-lapse microscope. Charts are displaying the percentage of wound closure over time.
(§1) 96-well ImageLock plates were coated with 0.1 mg/ml growth factor reduced Matrigel® and incubated for 1 h at 37° C. Cells were seeded a density of 10,000-40,000 cells/well in 100 μL/well and incubated overnight. Next day wounds were simultaneously created in all wells using the WoundMaker. After wounding, media was aspirated from each well and cells were washed twice with PBS. For invasion cells were overlayed with 50 μL of the Matrigel® top layer at 3mg/ml and incubated for 30 min at 37° C. […] Cell plates were placed into the IncuCyte live-cell analysis system and each well imaged using 10× objective every 2 hours for the total of 5-days. Images were analysed using IncuCyte scratch wound protocol and results presented as percentage of wound confluence.

[3] = tested on: primary fibroblasts, immortalized fibroblasts, cancer cells; experiment: Scratch wound cell invasion assay through Matrigel; format: cell-based, human
Procedure: The scratch wound cell invasion assay was used to measure the ability of indicated cells to invade through Matrigel® basement membrane. Pictures were taken every 2 hours over 4 days using a time-lapse microscope and wound closure over time is presented in charts.
as §1

MMP-7 = MMP-7 in supernatants of HDF invasion assay (Luminex); format: cell-based, human; details: invading HDF, 96 hours
Procedure: The scratch wound cell invasion assay was used to measure the ability of primary human fibroblasts to invade through Matrigel® basement membrane. Cell culture supernatants from invasion assay were collected after 96 hours and MMP-7 levels were measured using Luminex®.
To further explore whether USP7 inhibition modulates MMP levels in invading fibroblasts, cell culture supernatants from HDF invasion assay were collected and presence of various MMP was detected using Luminex® Multiplex assay.
(§2) Concentrations of MMP2 and MMP7 were determined in cell culture supernatants in triplicates using Luminex human cytokine/chemokine multiplex kits (Millipore, St. Charles, Mo., USA) according to the manufacturer's protocol.

MMP-2 = MMP-2 in supernatants of HDF and HUVEC co-culture (Luminex); format: cell-based, human; details: supernatants after 14 days
Procedure: Cell culture supernatants from tube formation were collected and MMP-2 levels were measured using Luminex®.
Next, the underlying mechanism of tube formation inhibition was investigated. […] To determine whether secretion of MMP-2 is modulated by USP7 inhibition, supernatants from HUVEC and HDF co-cultures were collected after 14 days.
as §2

[4] = tested on: CT-26 cells in BALB/C mice; experiment: CT-26 syngeneic tumour model (AD-04 study)
Procedure: FIG. 30: Effect of USP7 on the tumour microenvironment in vivo.
For subcutaneous tumour implantation, CT26 cells were injected subcutaneously (1×10^6cells in 200 μL of RPMI) in the right flank of 8- to 10-week-old BALB/c female mice. […] Tumour volume (in mm^3) was measured twice a week with a digital caliper and calculated by the following formula: volume=(width)^2×length/2. Body weight was measured twice a week. […]

[5] = tested on: primary human dermal fibroblasts (HDF) co-cultured with stimulated PBMCs, with or without cancer cells (HT29 or H1299); details: inhibitor concentration of 300 nM, 48 hours
Procedure: Biomarker changes relative to the vehicle control-treated systems are presented as log-transformed ratio.
BioMAP systems were employed using primary human cells. […] Human neonatal foreskin fibroblasts (HDFn) from 3 donors were pooled and cultured according to the supplier's (Lonza, Inc., Allendale, N.J.) recommendation. Peripheral blood mononuclear cells (PBMC) were prepared from buffy coats from normal human donors according to standard methods. Autoimmune HDFSAg system consisted of primary human dermal fibroblasts (HDF) co-cultured with PBMCs stimulated with T-cell receptor (SAg) to model chronic T cell activation and inflammation. Stromal Oncology Colorectal Cancer and Non-Small Cell Lung Cancer (NSCLC) panels were composed of cancer cells (HT29 or H1299), HDF and PBMCs stimulated with SAg. This model captures the interactions between tumour cells, stimulated immune cells and the host stromal network. […] Afterwards, biomarkers were measured in supernatants from co-cultures using ELISA as following: MCP-1, VCAM-1, Collagen I, IP-10, MMP-1, sIL-10, sIL-17A, sIL-17F, sIL-2, sIL-6, SRB, sTGFb, sTNFa, sVEGF, IL-8, MIG, MCSF, uPAR, Col-III, IP-10, EGFR, HGF, Pal-1, PBMC Cytotoxicity, tPA, uPA, sGranzyme, sPGE2, slFg, Sil-13, sMDC, Collagen III, MMP-9, TIMP-2, CEACAM5, Keratin 20. Biomarker levels are presented as log-transformed ratio

USP7, sequence (Q93009 whole entry): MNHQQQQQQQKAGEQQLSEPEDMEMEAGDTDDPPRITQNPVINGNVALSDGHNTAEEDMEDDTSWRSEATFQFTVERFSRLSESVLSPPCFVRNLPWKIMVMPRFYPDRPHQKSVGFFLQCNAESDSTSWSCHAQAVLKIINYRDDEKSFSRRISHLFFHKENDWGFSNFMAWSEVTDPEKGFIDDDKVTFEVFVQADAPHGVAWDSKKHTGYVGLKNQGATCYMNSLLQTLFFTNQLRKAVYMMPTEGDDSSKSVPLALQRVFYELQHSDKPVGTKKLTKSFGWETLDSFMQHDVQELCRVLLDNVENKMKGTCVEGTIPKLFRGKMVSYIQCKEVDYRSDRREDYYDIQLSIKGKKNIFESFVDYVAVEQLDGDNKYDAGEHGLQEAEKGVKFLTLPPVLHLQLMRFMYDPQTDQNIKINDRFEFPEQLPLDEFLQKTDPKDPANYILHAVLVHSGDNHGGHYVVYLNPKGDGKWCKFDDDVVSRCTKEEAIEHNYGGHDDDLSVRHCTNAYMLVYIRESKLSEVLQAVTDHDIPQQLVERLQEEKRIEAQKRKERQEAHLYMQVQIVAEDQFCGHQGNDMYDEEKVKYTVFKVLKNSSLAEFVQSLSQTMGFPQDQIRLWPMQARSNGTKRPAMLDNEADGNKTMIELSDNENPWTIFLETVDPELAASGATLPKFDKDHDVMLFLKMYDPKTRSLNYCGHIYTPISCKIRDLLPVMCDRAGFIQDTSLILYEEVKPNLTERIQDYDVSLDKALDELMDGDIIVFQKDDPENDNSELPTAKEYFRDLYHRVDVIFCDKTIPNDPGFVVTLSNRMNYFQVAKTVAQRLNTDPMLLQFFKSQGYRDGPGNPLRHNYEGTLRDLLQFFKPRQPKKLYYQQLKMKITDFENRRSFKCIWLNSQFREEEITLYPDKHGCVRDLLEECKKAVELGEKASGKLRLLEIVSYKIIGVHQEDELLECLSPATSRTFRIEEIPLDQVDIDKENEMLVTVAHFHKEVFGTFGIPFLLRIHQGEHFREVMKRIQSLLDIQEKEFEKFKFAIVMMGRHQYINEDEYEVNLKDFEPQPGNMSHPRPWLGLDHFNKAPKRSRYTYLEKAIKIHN

CC1(C(=O)N2CCC(O)(Cn3cnc4c(cc(Cl)n4-c4ccc5c(c4)CCO5)c3=O)CC2)CC1 [ADC-159, 6-Chloro-7-(2,3-dihydrobenzofuran-5-yl)-3-((4-hydroxy-1-(1-methylcyclopropane-1-carbonyl)piperidin-4-yl)methyl)-3,7-dihydro-4H-pyrrolo[2,3-d]pyrimidin-4-One]
oral availability (Oral availability): improved oral availability
EC50 (USP7): 0.126 µM
LM CLhep (h) (LM CLhep (h)): 9
Hep CLhep (h) (Hep CLhep (h)): 9
efflux ratio (MDCK permeability): 276
MDCK A:B (MDCK; A:B): 0.2
MDCK B:A (MDCK; B:A): 50.1
IC50 (2C19): > 20 µM
IC50 (2D6): > 20 µM

C[C@H](CC(=O)N1CCC(O)(Cn2cnc3c(-c4ccc(CN)cc4)n(C)nc3c2=O)CC1)c1ccccc1 [AD-04, (R)-3-(4-(Aminomethyl)phenyl)-6-((4-hydroxy-1-(3-phenylbutanoyl)piperidin-4-yl)methyl)-2-methyl-2H-pyrazolo[4,3-d]pyrimidin-7(6H)-one]
K63 specific polyubiquitination of HIF-1α (HIF-1α; versus DMSO control): no difference
K63/K48 polyubiquitinated HIF-1α (HIF-1α; AD-04 1 μM, MG132 10 μM, 1 hour): enhanced the accumulation
sensitivity of cancer cell lines ([1]; HT29 and H1299 (data not shown)): insensitive
sensitivity of cancer cell lines ([1]; LNCaP and MCF-7 (data not shown)): sensitive
cell viability ([1]; high concentration, normoxia and hypoxia, 72 hours): do not affect cell viability
migration (scratch wound healing) [2]: did not modulate migration
number of invading cells ([3]; cancer cells and immortalized fibroblasts): did not change
invasion through Matrigel basement membrane ([3]; primary fibroblast, compared to vehicle-treated cells): greatly reduced
MMP-7 levels (MMP-7): decreases
MMP-2 levels (MMP-2): decreases
tumour growth inhibition ([4]; 360 h): 53%
growth of CT26 xenografts (tumour volume) ([4]; dose-dependent manner): inhibited the growth
tolerability, bodyweight of tumour-bearing mice ([4]; mouse, in vivo): no significant bodyweight loss; also recorded: well tolerated
decrease in secreted VEGF (sVEGF) [5]: 3 log fold
